# Test results as given in US6080780A, “Use of nitroflavonoids for the treatment of anxiety” (University of Strathclyde, priority 1995, dated 2000).
# “Also recorded” adds a separate entry of the source. Where two headings read alike, the source gives them in different places.
# Key:
# [1] = target: T1, central benzodiazepine receptor type I (Rattus norvegicus, UniProt P18508+P62813); experiment: [3H]-zolpidem binding to rat synaptosomal membranes; set-up: species or system rat (Wistar); details: read-out: Ki, [3H]-ZOLP binding
# T1 construct: washed crude synaptosomal membranes from rat cerebral cortex; from tissue; host or cells: Wistar rat cerebral cortex, striatum, cerebellum (crude synaptosomal membranes)
# T1 sequence (P62813 28-455): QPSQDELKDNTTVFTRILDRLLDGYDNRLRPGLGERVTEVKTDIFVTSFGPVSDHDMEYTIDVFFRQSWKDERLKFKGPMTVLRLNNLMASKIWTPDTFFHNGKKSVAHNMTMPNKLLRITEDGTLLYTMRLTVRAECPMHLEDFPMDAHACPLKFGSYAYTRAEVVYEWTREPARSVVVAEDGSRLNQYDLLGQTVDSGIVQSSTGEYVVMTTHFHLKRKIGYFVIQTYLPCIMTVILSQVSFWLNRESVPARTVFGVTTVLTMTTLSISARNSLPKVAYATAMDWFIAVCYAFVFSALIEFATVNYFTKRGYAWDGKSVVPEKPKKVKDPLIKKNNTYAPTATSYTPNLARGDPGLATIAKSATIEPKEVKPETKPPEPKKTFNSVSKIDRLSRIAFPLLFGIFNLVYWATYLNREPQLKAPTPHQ
# T1 sequence (P18508 39-466): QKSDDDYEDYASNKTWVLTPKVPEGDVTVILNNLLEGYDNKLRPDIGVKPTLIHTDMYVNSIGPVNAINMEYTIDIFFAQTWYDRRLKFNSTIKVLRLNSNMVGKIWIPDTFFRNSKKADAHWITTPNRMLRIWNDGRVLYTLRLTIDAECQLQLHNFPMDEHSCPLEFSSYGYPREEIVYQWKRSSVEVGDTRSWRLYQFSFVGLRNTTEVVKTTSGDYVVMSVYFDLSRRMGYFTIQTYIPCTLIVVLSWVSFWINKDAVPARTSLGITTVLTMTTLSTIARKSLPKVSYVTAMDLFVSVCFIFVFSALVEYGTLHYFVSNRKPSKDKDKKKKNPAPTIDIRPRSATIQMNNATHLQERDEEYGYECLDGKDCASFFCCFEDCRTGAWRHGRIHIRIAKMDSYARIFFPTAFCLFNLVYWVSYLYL
# T1 sequence (P63138 25-474 partner limits assumed): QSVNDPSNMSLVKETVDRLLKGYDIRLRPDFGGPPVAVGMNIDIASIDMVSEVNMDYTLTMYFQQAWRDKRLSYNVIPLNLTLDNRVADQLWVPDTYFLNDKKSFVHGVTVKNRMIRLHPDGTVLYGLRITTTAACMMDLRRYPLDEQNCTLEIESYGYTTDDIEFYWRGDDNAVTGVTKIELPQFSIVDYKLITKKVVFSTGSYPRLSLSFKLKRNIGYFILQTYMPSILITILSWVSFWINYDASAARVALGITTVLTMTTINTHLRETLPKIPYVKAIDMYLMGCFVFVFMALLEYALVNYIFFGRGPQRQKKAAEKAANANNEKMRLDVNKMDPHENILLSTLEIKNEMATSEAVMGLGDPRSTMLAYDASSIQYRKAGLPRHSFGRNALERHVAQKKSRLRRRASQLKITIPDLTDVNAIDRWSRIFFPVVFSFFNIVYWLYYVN
# Procedure: (§1) Adult male Wistar rats weighing 250 g were used for biochemical experiments. Adult male Swiss male weighing 25-30 g were used for pharmacological assays except for inhibitory avoidance and tail flick tests were done in rats. Animals were housed in a controlled environment, with free access to food and water and maintained on a 12 h/12 h day/night cycle.
# Displacement curves were performed using [^3 ]-FNZ or [^3 H]-zolpidem ([^3 H]-ZOLP) as radioligands in washed crude synaptosomal membranes from rat cerebral cortex, cerebellum, hippocampus, striatum or spinal cord. Membrane preparations were carried out according to Medina et al. (1990). Briefly, brains were rapidly dissected out on ice and the different structures were homogenized in 10 volumes of 0.32 M sucrose and centrifuged at 900×g for 10 min. The resulting supernatant was centrifuged at 100,000×g for 30 min and the pellet washed twice in 25 mM Tris HCl buffer pH 7.4 at 100,000×g for 30 min, and stored at -20° C. until used.
# For [^3 H]-ZOLP (50.8 Ci/mmol, NEN) binding assays we used the technique of Arbilla et al. (1986), slightly modified as follows: displacement curves were done with 1 nM of the radioligand and 10 μM zolpidem to determine the nonspecific binding (<15%). The incubation of the samples (0.4 mg protein in 1 ml of 50 mM Tris HCl buffer, pH 7.4, 120 mM NaCl, 5 mM KCl) was carried out at 4' C. during 30 min. […]
# [2] = test system: muscarinic cholinergic receptors; format: binding; details: 20 μM; data not shown
# [3] = test system: α1 adrenergic receptors; experiment: [3H]-prazosin binding; details: 20 μM; data not shown
# Procedure: (§2) Additional binding studies were performed as described elsewhere: [^3 ]-prazosin binding for α1 adrenergic receptors (Medina et al., 1984), [^3 H]-dihidroalprenolol binding for β adrenergic receptors (Medina et al. 1984), [^3 H]-quinuclinidyl benzylate binding for muscarinic cholinergic receptors (Jerusalinksy et al., 1983), [^3 H]-muscimol binding for GABAλ receptors (Medina et al., 1983) and [^3 H]-8-Hydroxydipropylaminotetralin ([^3 H]--OH--DPAT) binding for serotonin (5-HTlλ) receptors (Nenonene et al., 1984).
# [4] = test system: serotonin (5-HTlλ) receptors; experiment: [3H]-8-OH-DPAT binding; details: 20 μM; data not shown
# Procedure: as §2
# [5] = test system: mice; experiment: Elevated plus maze test in mice (Section 2); format: in vivo, male Swiss mice
# Procedure: as §1
# An Opto-varimex® apparatus was used according to Viola et al. (1994). The apparatus discriminates between total and ambulatory activities. An increase in the number of transitions through the beams reflects augmented locomotor activity. In this and all following tests in mice, animals were i.p. injected with the vehicle, or with DNF 20 min before the beginning of the tests. In each session, control mice were tested in parallel with those animals receiving drug treatment.
# The test was performed in the same session immediately after the locomotor activity measurement (Viola et al., 1994; Wolfman et al., 1994). […] A series of experiments with the injection of the selective central benzodiazepine receptor antagonist Ro 15-1788 (File and Pellow, 1986) was also carried out.
# [6] = test system: mice; experiment: Horizontal wire test in mice; format: in vivo, male Swiss mice
# Procedure: as §1
# This test was carried out as previously described (Viola et al., 1994; Wolfman et al., 1994; Viola et al., 1995). The test took place after two trials, performed at 5 min intervals. A myorelaxant drug will impair mice to grasp the wire (Bonetti et al., 1982). The effect of DNF )1 mg/kg) on DZ-induced myorelaxation was also determined.
# [7] = test system: rats; experiment: Inhibitory avoidance test in rats; format: in vivo, rat
# Procedure: This test was performed according to Izquierdo et al., (1990). The training apparatus was a 50×25×25 cm acrylic box with a frontal glass panel and a floor made of parallel 1 mm caliber bronze bars spaced […] apart. A 5 cm high, 7 cm wide formica platform was placed on the loft extreme of the box. Rats were placed on the platform and their latency to step-down placing their four paws on the grid was measured. On stepping-down they received a 0.35 mA, 2 s scrambled footshock and were withdrawn from the box (training session). The test session was carried out 20 h later and was similar to the training session in all respects except that the footshock was omitted. Test step-down latency (to a ceiling of 180 s) was taken as a measure of retention of inhibitory avoidance (Izquierdo et al., 1990).
# [8] = target: central benzodiazepine receptor (Rattus norvegicus, UniProt P18508+P62813); experiment: Autoradiographic [3H]-FNZ displacement on rat brain sections; format: binding, rat (Wistar); set-up: Wistar rats were decapitated and brains rapidly removed; from tissue; host or cells: Wistar rat brain sagittal sections
# central benzodiazepine receptor, sequence (P62813 28-455): as the sequence (P62813 28-455) above
# central benzodiazepine receptor, sequence (P18508 39-466): as the sequence (P18508 39-466) above
# central benzodiazepine receptor, sequence (P63138 26-474 partner): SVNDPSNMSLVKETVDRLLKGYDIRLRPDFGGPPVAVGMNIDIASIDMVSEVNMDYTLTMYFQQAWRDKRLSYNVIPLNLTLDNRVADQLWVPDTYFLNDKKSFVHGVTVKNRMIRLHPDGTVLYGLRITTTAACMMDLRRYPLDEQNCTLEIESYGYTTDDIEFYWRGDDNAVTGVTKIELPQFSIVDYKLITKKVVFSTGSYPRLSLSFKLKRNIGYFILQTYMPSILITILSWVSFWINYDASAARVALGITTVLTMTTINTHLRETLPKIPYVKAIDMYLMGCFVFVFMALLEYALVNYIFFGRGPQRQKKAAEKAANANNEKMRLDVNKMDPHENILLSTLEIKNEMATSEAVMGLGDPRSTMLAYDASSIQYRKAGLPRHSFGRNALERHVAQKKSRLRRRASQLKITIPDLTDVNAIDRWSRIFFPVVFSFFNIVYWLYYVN
# Procedure: Wistar rats were decapitated and brains rapidly removed. Sagittal sections (15 μm in thickness) were prepared at -20° C. using a microtome-cryostat. The tissue slices were kept frozen at -70° C. until used. For DNF displacement curves to [^3 H]--FNZ binding (0.65 nM), tissue sections were incubated for 60 min at 4° C. in 25 mM Tris HCl buffer, pH 7.4, in presence of different concentrations of DNF (1-600 nM). For non-specific binding we used 10 μM FNZ. The incubation was terminated by rinsing the sections for two min in cold buffer. Sections were briefly dipped in cold distilled water and dried rapidly under a stream of cold air (Niddam et al., 1987).
# Autoradiograms were generated by apposing the slide-mounted tissue section to tritium-sensitive film (Hyperfilm Amersham) in a light-proof X-ray cassette at 4° C. for two weeks.
# The optical densities from different brain regions were converted first to radioactive units and then to fmol/mm^2 using the [^3 H] standards on the film with the aid of a computerized image densitometric analysis system (MCID 4.02). The values were normalized and the Ki values were determined using a computerized program (Graph-Pad Prism) Bernabeu et al., 1995; Cammarota et al., 1995).
smiles,measurement,setting,value
"O=c1cc(-c2cccc([N+](=O)[O-])c2)oc2ccc([N+](=O)[O-])cc12 [Compound (II), 6,3'-dinitroflavone]",Ki,"[1]; rat cerebellum, n=3",17 ± 1.5 nM
same,Ki,"[1]; rat cerebral cortex, n=5",17.2 ± 3.7 nM
same,displacement of [3H]-quinuclidinyl benzilate binding,[2],did not displace
same,displacement of [3H]-prazosin binding,[3],did not displace
same,displacement of [3H]-8-HO-DPAT binding,[4],did not displace
same,effect of Ro 15-1788 on DNF anxiolytic effect,"[5]; mice, DNF 30 μg/kg + Ro 15-1788 1 mg/kg, listed as DNF, 1 mg/kg",blocked by the injection of Ro 15-1788; also recorded: blocked by the administration of the selective benzodiazepine antagonist Ro 15-1788
same,total arm entries,"[5]; mice, i.p., 30 μg/kg",No differences were observed in the total arm entries
same,percentage of entries in the open arms,"[5]; mice, i.p., 30 μg/kg, p<0.01",increased the percentage of entries in the open arms
same,anxiolytic potency in comparison to DZ,[5]; ratio to diazepam,30 times
same,effect on DZ-induced myorelaxation,"[6]; mice, DNF plus DZ (1 mg/kg), listed as DNF",counteracted; also recorded: able to reverse the myorelaxant effect of the full agonist DZ; also recorded: prevents the muscle relaxation effect of a full benzodiazepine receptor agonist
same,"animals showing myorelaxant effect, DNF plus DZ","[6]; mice, i.p., DNF plus DZ (1 mg/kg), p<0.001",2 animals out of 15
same,percentage of mice grasping the wire,"[6]; mice, i.p., up to 10 mg/kg",did not affect the percentage of mice grasping
same,myorelaxant effects,[6]; up to 10 mg/kg,"did not evidence anticonvulsant, myorelaxant"
same,test session performance of inhibitory avoidance,"[7]; rats, i.p., 100 μg/kg, pre or posttraining",no effect
same,amnesic effects,[7]; up to 10 mg/kg as worded,"did not evidence anticonvulsant, myorelaxant, amnesic"
same,Ki,[8],17.2 ± 2.3 nM
